Measurements taken from ChEMBL document CHEMBL1201862, “PubChem BioAssay data set” (2004).
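Growth conditions: 96-well plates. Treatment: test compound, 48 hours, 5 concentrations. Analysis: linear interpolation between bracketing concentrations; unreached endpoints set to highest concentration. Abbreviation: GI50, concentration required for 50% inhibition of growth.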 Activity calls are given as the source filed them. No stated cut-off is given here; in the data, active = GI50 up to about 1.1 µM and inactive = higher.

Assays:
Assay in all cases: NCI tumour cell line growth inhibition, 48 h
HOP-18 = system: HOP-18
MCF7 = system: MCF7
XF498 = system: XF498
Hs-578T = system: Hs-578T
T47D = system: T47D
MDA-N = system: MDA-N
MDA-MB-435 = system: MDA-MB-435
786-0 = system: 786-0
PC-3 = system: PC-3

| SMILES | GI50 (HOP-18) | GI50 (MCF7) | GI50 (XF498) | GI50 (Hs-578T) | GI50 (T47D) | GI50 (MDA-N) | GI50 (MDA-MB-435) | GI50 (786-0) | GI50 (PC-3) |
| --- | --- | --- | --- | --- | --- | --- | --- | --- | --- |
| Cc1n(CC(=O)c2ccc([N+](=O)[O-])cc2)c2c([n+]1CC(C)C)C(=O)c1ccccc1C2=O | < 0.0184 µM (active) | < 0.01 µM (active) | – | – | – | – | – | – | – |
| c1ccc([P+](Cc2csnn2)(c2ccccc2)c2ccccc2)cc1 | > 100 µM (inactive) | – | > 100 µM (inactive) | – | – | – | – | – | – |
| Cc1nc2c(n1C)C(=O)c1nc(CBr)[nH]c(=O)c1C2=O | > 100 µM (inactive) | – | > 10 µM (inactive) | – | – | – | – | – | – |
| CCc1n[nH]c(=O)n1CC | – | > 100 µM (inactive) | – | > 100 µM (inactive) | > 100 µM (inactive) | > 100 µM (inactive) | > 100 µM (inactive) | > 100 µM (inactive) | – |
| Cc1ccc(N2Cc3c(ccc4ccccc34)OP2(=S)N2CCCC2)cc1 (stereo not given) | > 100 µM (inactive) | > 100 µM (inactive) | > 100 µM (inactive) | – | – | – | – | – | – |
| COc1cccc(CC2Cc3ccccc3CC(=O)N2)c1 (stereo not given) | – | 30.4 µM (inactive) | – | 21.4 µM (inactive) | 41.5 µM (inactive) | 48.1 µM (inactive) | 32.7 µM (inactive) | – | 31 µM (inactive) |
| O=NN(CC1(O)OCC(O)C(O)C1O)C(Cc1c[nH]c2ccccc12)C(=O)O (stereo not given) | – | – | > 100 µM (inactive) | – | – | – | – | > 100 µM (inactive) | – |
| c1ccc2c(NCCCCCCCCNc3cccc4ccccc34)cccc2c1 | 20.1 µM (inactive) | – | 78.9 µM (inactive) | – | – | – | – | 23.4 µM (inactive) | – |
| O=S(=O)(c1ccc(I)cc1)N(c1ccccc1)S(=O)(=O)C(F)(F)C(F)(F)C(F)(F)C(F)(F)F | – | 26.9 µM (inactive) | – | 30.2 µM (inactive) | 35.5 µM (inactive) | 60.1 µM (inactive) | > 100 µM (inactive) | 45.7 µM (inactive) | 38.7 µM (inactive) |
| COc1cccc(NC(=O)CC(=O)NN2C(=O)/C(=C/c3ccc(N(CCC#N)CCC#N)cc3)N=C2c2cc([N+](=O)[O-])ccc2Cl)c1 | – | – | 57.7 µM (inactive) | – | – | – | – | – | – |
| CC(=O)Oc1ccccc1[C@H]1CC(=O)C[C@H](c2ccccc2OC(C)=O)C12C(=O)c1ccccc1C2=O | – | – | – | 27.7 µM (inactive) | 40.2 µM (inactive) | 16 µM (inactive) | 14.7 µM (inactive) | – | 17.5 µM (inactive) |
| C=C1C2=C(CCCC2)C(=O)OC12CCCCC2 | > 100 µM (inactive) | – | 97.5 µM (inactive) | – | – | – | – | > 100 µM (inactive) | – |
| Cc1[nH]c(=O)[nH]c(=O)c1/C=C/C(=O)NC(CO)CC(C)C (stereo not given) | 254 µM (inactive) | 228 µM (inactive) | 60 µM (inactive) | – | – | – | – | – | – |
| COc1ccc(CCn2nccc2C)cc1 | – | > 100 µM (inactive) | – | > 100 µM (inactive) | 74.1 µM (inactive) | > 100 µM (inactive) | > 100 µM (inactive) | – | > 100 µM (inactive) |
| COc1ccccc1NC(=O)C(=O)C(C(=O)c1ccccc1F)C1OC(=O)c2ccccc21 (stereo not given) | – | – | 14.1 µM (inactive) | – | – | – | – | – | – |
| Cc1ccc(SSCCCCCS(=O)O)cc1 | – | – | 18.6 µM (inactive) | – | – | – | – | – | – |
| NCCCCCC(CCN)SCC1OC(n2cnc3c(N)ncnc32)C(O)C1O (stereo not given) | 6.76 µM (inactive) | > 1500 µM (inactive) | > 15 µM (inactive) | – | – | – | – | – | – |
| COc1ccccc1-c1cc(O)c2cc(C)cnc2n1 | – | 47.5 µM (inactive) | – | 43.4 µM (inactive) | 63.4 µM (inactive) | – | 3.8 µM (inactive) | – | – |
